The results in this text go back to publication PMC5512002 (Cellular signalling, 2017).

This assay concerns the target T1, GPR55 (Rattus norvegicus, UniProt F1MAK4).
T1 sequence (F1MAK4 1-319): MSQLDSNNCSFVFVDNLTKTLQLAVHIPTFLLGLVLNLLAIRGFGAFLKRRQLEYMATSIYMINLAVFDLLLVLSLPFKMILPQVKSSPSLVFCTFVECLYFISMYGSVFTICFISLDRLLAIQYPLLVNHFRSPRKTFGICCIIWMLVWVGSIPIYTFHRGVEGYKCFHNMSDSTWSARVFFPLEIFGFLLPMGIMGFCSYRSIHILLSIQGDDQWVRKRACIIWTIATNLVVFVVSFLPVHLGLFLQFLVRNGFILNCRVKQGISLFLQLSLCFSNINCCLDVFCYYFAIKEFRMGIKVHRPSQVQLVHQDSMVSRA
In words: inhibition of uptake of fluorescent GPR55 ligand T1117 in live C6 cells. It is filed as cell-based.

`COc1ccc(C[C@@H](C)NC[C@H](O)c2cc(O)cc(O)c2)c2ccccc12` [(R,R′)-MNF] had a half-inhibitory concentration (IC50) of 320 nM. That is a sub-micromolar value.

For orientation: IC50 means the concentration needed to halve the response being measured. A higher IC50 goes with weaker potency in that assay.
